Measured values reported in patent publication US12281149B2, “Modulators of G-protein coupled receptors” (priority 2021, dated 2025).
*1 amine or outer side, *2 acyl side, *3 side chain or, on linkers, in order; H or OH if unused. Where a SMILES comes first, the peptide text is derived from it. Side-chain parts run from the residue outwards. [ ]: non-standard residue; d: D form. The star is where a group is joined. Isobutyryl(2-(3-CN-5-F-Ph)) = CC(C)(C(=O)*)c1cc(F)cc(C#N)c1; C20 diacid = O=C(O)CCCCCCCCCCCCCCCCCCC(=O)*; X49 = O=C([C@H](CN[*:1])c1ccccc1)[*:2]; γGlu = O=C(O)[C@H](CCC(=O)[*:2])N[*:1]; X68 = CC(C)[C@@H](CN[*:1])C(=O)[*:2]; AEEA = NCCOCCOCC(=O)O; Aib = CC(C)(N)C(=O)O; βAla = NCCC(=O)O

Assays:
Type in all cases: cell-based
GLP-1 receptor [1] = target: T1, GLP-1 receptor (Homo sapiens, UniProt P43220); assay: HitHunter cAMP assay, GLP-1 receptor; conditions: for EC50: CHO cells stably expressing human GLP-1 receptor, cAMP accumulation, 30 min, read-out: EC50 GLP-1R; for Emax: CHO cells, cAMP, normalized to maximum signal from GLP-1 (high) and DMSO (low), read-out: Emax GLP-1R
GIP receptor [2] = target: T2, GIP receptor (Homo sapiens, UniProt P48546); assay: PathHunter β-arrestin assay, GIP receptor; set-up: host or cells: PathHunter CHO-K1 GIPR β-Arrestin Cell Line; conditions: β-arrestin-2 recruitment, PathHunter CHO-K1 GIPR β-Arrestin Cell Line, 90 min at 37° C.; normalized to GIP; read-out: GIPR β Arrestin EC50
T2 sequence (P48546 22-466): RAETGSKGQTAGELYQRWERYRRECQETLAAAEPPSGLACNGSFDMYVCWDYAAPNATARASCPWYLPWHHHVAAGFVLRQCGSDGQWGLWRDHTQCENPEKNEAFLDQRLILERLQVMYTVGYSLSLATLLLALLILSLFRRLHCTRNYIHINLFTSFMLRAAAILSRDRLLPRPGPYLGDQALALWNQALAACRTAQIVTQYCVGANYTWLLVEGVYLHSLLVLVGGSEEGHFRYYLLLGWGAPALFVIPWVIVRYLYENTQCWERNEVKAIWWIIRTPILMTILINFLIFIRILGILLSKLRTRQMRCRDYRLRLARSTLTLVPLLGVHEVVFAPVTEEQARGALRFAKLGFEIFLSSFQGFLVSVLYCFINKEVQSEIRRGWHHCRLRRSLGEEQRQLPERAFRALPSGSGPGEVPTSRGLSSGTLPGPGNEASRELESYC

GIP receptor [3] = target: T2, GIP receptor; assay: HitHunter cAMP assay, GIP receptor; conditions: for EC50: CHO cells stably expressing GIP receptor, cAMP accumulation, 30 min, read-out: EC50 GIP-1R; for Emax: CHO cells, cAMP, normalized to maximum signal from GIP (high) and DMSO (low), read-out: Emax GIP-1R
GLP-1 receptor [4] = target: T1, GLP-1 receptor; assay: PathHunter β-arrestin assay, GLP-1 receptor; set-up: host or cells: PathHunter CHO-K1 GLP1R β-Arrestin Cell Line; conditions: β-arrestin-2 recruitment, PathHunter CHO-K1 GLP1R β-Arrestin Cell Line, 90 min at 37° C.; normalized to GLP-1; read-out: GLP-1R β Arrestin EC50

T1 sequence (P43220 24-463): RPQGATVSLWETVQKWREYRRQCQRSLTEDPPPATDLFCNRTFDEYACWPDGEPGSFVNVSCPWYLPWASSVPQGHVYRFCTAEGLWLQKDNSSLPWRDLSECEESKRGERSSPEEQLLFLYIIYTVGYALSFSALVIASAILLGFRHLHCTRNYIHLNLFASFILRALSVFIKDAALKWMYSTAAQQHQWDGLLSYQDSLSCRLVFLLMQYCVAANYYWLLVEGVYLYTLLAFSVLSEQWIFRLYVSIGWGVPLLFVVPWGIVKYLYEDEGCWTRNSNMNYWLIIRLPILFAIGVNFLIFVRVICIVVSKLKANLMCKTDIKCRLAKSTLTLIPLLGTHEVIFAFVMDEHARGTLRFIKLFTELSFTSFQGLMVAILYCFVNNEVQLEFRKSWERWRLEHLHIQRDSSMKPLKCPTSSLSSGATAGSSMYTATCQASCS

Row | Compound | EC50 (GLP-1 receptor [1]) [nM] | Emax (GLP-1 receptor [1]) [%] | EC50 (GIP receptor [2]) [nM] | EC50 (GIP receptor [3]) [nM] | Emax (GIP receptor [3]) [%] | EC50 (GLP-1 receptor [4]) [nM]
1 | CC[C@H](C)[C@H](NC(=O)[C@H](CO)NC(=O)[C@H](CCCCNC(=O)COCCOCCNC(=O)COCCOCCNC(=O)CC[C@H](NC(=O)CCCCCCCCCCCCCCCCCCC(=O)O)C(=O)O)NC(=O)[C@H](CC(=O)O)NC(=O)[C@H](CO)NC(=O)[C@@H](NC(=O)[C@H](Cc1ccccc1)NC(=O)[C@@H](NC(=O)CNC(=O)[C@H](CCC(=O)O)NC(=O)CCNC(=O)C(C)(C)c1cc(F)cc(C#N)c1)[C@@H](C)O)[C@@H](C)O)C(=O)N[C@@H](Cc1ccc(O)cc1)C(=O)N[C@@H](CC(C)C)C(=O)N[C@@H](CC(=O)O)C(=O)N[C@@H](CCCCN)C(=O)N[C@@H](CCC(N)=O)C(=O)N[C@@H](C)C(=O)N[C@@H](C)C(=O)NC(C)(C)C(=O)N[C@@H](CCC(=O)O)C(=O)N[C@@H](Cc1ccccc1)C(=O)N[C@H](C(=O)N[C@@H](CC(N)=O)C(=O)N[C@@H](Cc1c[nH]c2ccccc12)C(=O)N[C@@H](CC(C)C)C(=O)N[C@@H](CC(C)C)C(=O)N[C@@H](C)C(=O)NCC(=O)NCC(=O)N1CCC[C@H]1C(=O)N[C@@H](CO)C(=O)N[C@@H](CO)C(=O)NCC(=O)N[C@@H](C)C(=O)N1CCC[C@H]1C(=O)N1CCC[C@H]1C(=O)N1CCC[C@H]1C(=O)N[C@@H](CO)C(N)=O)C(C)C [Compound 167] ({Isobutyryl(2-(3-CN-5-F-Ph))-βAla}-EGTFTSDK([AEEA-AEEA-γGlu-C20 diacid])SIYLDKQAA[Aib]EFVNWLLAGGPSSGAPPPS-NH2) | 0.1 to 1 | 108 | > 1000 | 10 to 100 | 91 | > 1000
2 | CC[C@H](C)[C@H](NC(=O)[C@H](CC(C)C)NC(=O)[C@H](Cc1c[nH]c2ccccc12)NC(=O)[C@H](CCC(N)=O)NC(=O)[C@@H](NC(=O)[C@H](Cc1ccccc1)NC(=O)[C@H](C)NC(=O)[C@H](CCCCNC(=O)COCCOCCNC(=O)COCCOCCNC(=O)CC[C@H](NC(=O)CCCCCCCCCCCCCCCCCCC(=O)O)C(=O)O)NC(=O)[C@H](CCC(N)=O)NC(=O)[C@H](C)NC(=O)[C@@H](NC(=O)[C@H](CCCCN)NC(=O)[C@H](CC(=O)O)NC(=O)[C@H](CC(C)C)NC(=O)C(C)(C)NC(=O)[C@@H](NC(=O)[C@H](CO)NC(=O)[C@H](Cc1ccc(O)cc1)NC(=O)[C@H](CC(=O)O)NC(=O)[C@H](CO)NC(=O)[C@H](C)NC(=O)[C@H](Cc1ccccc1)NC(=O)[C@@H](NC(=O)CNC(=O)[C@H](CCC(=O)O)NC(=O)CCNC(=O)C(C)(C)c1cc(F)cc(C#N)c1)[C@@H](C)O)[C@@H](C)CC)[C@@H](C)CC)C(C)C)C(=O)N[C@@H](C)C(=O)NCC(=O)NCC(=O)N1CCC[C@H]1C(=O)N[C@@H](CO)C(=O)N[C@@H](CO)C(=O)NCC(=O)N[C@@H](C)C(=O)N1CCC[C@H]1C(=O)N1CCC[C@H]1C(=O)N1CCC[C@H]1C(=O)N[C@@H](CO)C(N)=O [Compound 168] ({Isobutyryl(2-(3-CN-5-F-Ph))-βAla}-EGTFASDYSI[Aib]LDKIAQK([AEEA-AEEA-γGlu-C20 diacid])AFVQWLIAGGPSSGAPPPS-NH2) | 10 to 100 | 87 | < 1000 | 1 to 10 | 112 | > 1000
3 | CC[C@H](C)[C@H](NC(=O)[C@H](CC(C)C)NC(=O)[C@H](Cc1c[nH]c2ccccc12)NC(=O)[C@H](CCC(N)=O)NC(=O)[C@@H](NC(=O)[C@H](Cc1ccccc1)NC(=O)[C@H](C)NC(=O)[C@H](CCCCNC(=O)COCCOCCNC(=O)COCCOCCNC(=O)CC[C@H](NC(=O)CCCCCCCCCCCCCCCCCCC(=O)O)C(=O)O)NC(=O)[C@H](CCC(N)=O)NC(=O)[C@H](C)NC(=O)[C@@H](NC(=O)[C@H](CCCCN)NC(=O)[C@H](CC(=O)O)NC(=O)[C@H](CC(C)C)NC(=O)C(C)(C)NC(=O)[C@@H](NC(=O)[C@H](CO)NC(=O)[C@H](Cc1ccc(O)cc1)NC(=O)[C@H](CC(=O)O)NC(=O)[C@H](CO)NC(=O)[C@@H](NC(=O)[C@H](Cc1ccccc1)NC(=O)[C@@H](NC(=O)CNC(=O)[C@H](CCC(=O)O)NC(=O)CCNC(=O)C(C)(C)c1cc(F)cc(C#N)c1)[C@@H](C)O)[C@@H](C)O)[C@@H](C)CC)[C@@H](C)CC)C(C)C)C(=O)N[C@@H](C)C(=O)NCC(=O)NCC(=O)N1CCC[C@H]1C(=O)N[C@@H](CO)C(=O)N[C@@H](CO)C(=O)NCC(=O)N[C@@H](C)C(=O)N1CCC[C@H]1C(=O)N1CCC[C@H]1C(=O)N1CCC[C@H]1C(=O)N[C@@H](CO)C(=O)O [Compound 169] ({Isobutyryl(2-(3-CN-5-F-Ph))-βAla}-EGTFTSDYSI[Aib]LDKIAQK([AEEA-AEEA-γGlu-C20 diacid])AFVQWLIAGGPSSGAPPPS-OH) | 0.1 to 1 | 108 | < 1000 | 1 to 10 | 110 | > 1000
4 | CC[C@H](C)[C@H](NC(=O)[C@H](CC(C)C)NC(=O)[C@H](Cc1c[nH]c2ccccc12)NC(=O)[C@H](CCC(N)=O)NC(=O)[C@@H](NC(=O)[C@H](Cc1ccccc1)NC(=O)[C@H](C)NC(=O)[C@H](CCCCNC(=O)COCCOCCNC(=O)COCCOCCNC(=O)CC[C@H](NC(=O)CCCCCCCCCCCCCCCCCCC(=O)O)C(=O)O)NC(=O)[C@H](CCC(N)=O)NC(=O)[C@H](C)NC(=O)[C@@H](NC(=O)[C@H](CCCCN)NC(=O)[C@H](CC(=O)O)NC(=O)[C@H](CC(C)C)NC(=O)C(C)(C)NC(=O)[C@@H](NC(=O)[C@H](CO)NC(=O)[C@H](Cc1ccc(O)cc1)NC(=O)[C@H](CC(=O)O)NC(=O)[C@H](CO)NC(=O)[C@@H](NC(=O)[C@H](Cc1ccccc1)NC(=O)[C@@H](NC(=O)CNC(=O)[C@H](CCC(=O)O)NC(=O)[C@H](CNC(=O)C(C)(C)c1cc(F)cc(C#N)c1)c1ccccc1)[C@@H](C)O)[C@@H](C)O)[C@@H](C)CC)[C@@H](C)CC)C(C)C)C(=O)N[C@@H](C)C(=O)NCC(=O)NCC(=O)N1CCC[C@H]1C(=O)N[C@@H](CO)C(=O)N[C@@H](CO)C(=O)NCC(=O)N[C@@H](C)C(=O)N1CCC[C@H]1C(=O)N1CCC[C@H]1C(=O)N1CCC[C@H]1C(=O)N[C@@H](CO)C(N)=O [Compound 170] ({Isobutyryl(2-(3-CN-5-F-Ph))}-[X49]EGTFTSDYSI[Aib]LDKIAQK([AEEA-AEEA-γGlu-C20 diacid])AFVQWLIAGGPSSGAPPPS-NH2) | 100 to 1000 | 57 | > 1000 | 100 to 1000 | 37 | > 1000
5 | CC[C@H](C)[C@H](NC(=O)[C@H](CC(C)C)NC(=O)[C@H](Cc1c[nH]c2ccccc12)NC(=O)[C@H](CCC(N)=O)NC(=O)[C@@H](NC(=O)[C@H](Cc1ccccc1)NC(=O)[C@H](C)NC(=O)[C@H](CCCCNC(=O)COCCOCCNC(=O)COCCOCCNC(=O)CC[C@H](NC(=O)CCCCCCCCCCCCCCCCCCC(=O)O)C(=O)O)NC(=O)[C@H](CCC(N)=O)NC(=O)[C@H](C)NC(=O)[C@@H](NC(=O)[C@H](CCCCN)NC(=O)[C@H](CC(=O)O)NC(=O)[C@H](CC(C)C)NC(=O)C(C)(C)NC(=O)[C@@H](NC(=O)[C@H](CO)NC(=O)[C@H](Cc1ccc(O)cc1)NC(=O)[C@H](CC(=O)O)NC(=O)[C@H](CO)NC(=O)[C@@H](NC(=O)[C@H](Cc1ccccc1)NC(=O)[C@@H](NC(=O)CNC(=O)[C@H](CCC(=O)O)NC(=O)[C@H](CNC(=O)C(C)(C)c1cc(F)cc(C#N)c1)C(C)C)[C@@H](C)O)[C@@H](C)O)[C@@H](C)CC)[C@@H](C)CC)C(C)C)C(=O)N[C@@H](C)C(=O)NCC(=O)NCC(=O)N1CCC[C@H]1C(=O)N[C@@H](CO)C(=O)N[C@@H](CO)C(=O)NCC(=O)N[C@@H](C)C(=O)N1CCC[C@H]1C(=O)N1CCC[C@H]1C(=O)N1CCC[C@H]1C(=O)N[C@@H](CO)C(N)=O [Compound 171] ({Isobutyryl(2-(3-CN-5-F-Ph))}-[X68]EGTFTSDYSI[Aib]LDKIAQK([AEEA-AEEA-γGlu-C20 diacid])AFVQWLIAGGPSSGAPPPS-NH2) | 10 to 100 | 109 | > 1000 | 100 to 1000 | 94 | > 1000
